Values after ≈ are worked out from the molar mass of the structure shown. Read-outs that look alike come from different tables or passages of the source.
Columns and labels:
Escherichia coli EC14 = assay: MIC, standard agar-dilution assay; format: cell-based
Protocol: (§1) The MIC's in Table II were determined by standard agar-dilution assays. The MIC's in Table III were obtained using conventional broth-dilution microtiter tests.

[1] = system: Haemophilus influenzae 76; assay: MIC, standard agar-dilution assay; format: cell-based
Protocol: as §1

[2] = system: Haemophilus influenzae C.L.; assay: MIC, standard agar-dilution assay; format: cell-based
Protocol: as §1

[3] = system: Klebsiella pneumoniae X68; assay: MIC, standard agar-dilution assay; format: cell-based
Protocol: as §1

[4] = system: Pseudomonas aeruginosa X239; assay: MIC, standard agar-dilution assay; format: cell-based
Protocol: as §1

[5] = system: Staphylococcus aureus S13E; assay: MIC, standard agar-dilution assay; format: cell-based
Protocol: as §1

[6] = system: Staphylococcus aureus V41; assay: MIC, standard agar-dilution assay; format: cell-based
Protocol: as §1

[7] = system: Staphylococcus aureus X1.1; assay: MIC, standard agar-dilution assay; format: cell-based
Protocol: as §1

[8] = system: Staphylococcus aureus X400; assay: MIC, standard agar-dilution assay; format: cell-based
Protocol: as §1

[9] = system: Staphylococcus epidermidis 222; assay: MIC, standard agar-dilution assay; format: cell-based
Protocol: as §1

[10] = system: Staphylococcus epidermidis EPI1; assay: MIC, standard agar-dilution assay; format: cell-based
Protocol: as §1

[11] = system: Streptococcus faecalis 2041; assay: MIC, standard agar-dilution assay; format: cell-based; conditions: Enterococcus faecalis
Protocol: as §1

[12] = system: Streptococcus faecalis X66; assay: MIC, standard agar-dilution assay; format: cell-based; conditions: Enterococcus faecalis
Protocol: as §1

[13] = system: Streptococcus pneumoniae Park I; assay: MIC, standard agar-dilution assay; format: cell-based
Protocol: as §1

[14] = system: Streptococcus pyogenes C203; assay: MIC, standard agar-dilution assay; format: cell-based
Protocol: as §1

[15] = system: Streptococcus pyogenes C203; assay: ED50 in mice experimentally infected with S. pyogenes C203; format: in vivo
Protocol: The formula 1 compounds have shown in vivo antimicrobial activity against experimentally-induced infections in laboratory animals. When two doses of test compound were administered to mice experimentally infected with S. pyogenes C203, the activity observed was measured as an ED₅₀ value [effective dose in mg/kg to protect 50% of the test animals: see Warren Wick, et 5 al., J. Bacteriol. 81, 233-235 (1961)].

[16] = Escherichia coli EC14, agar dilution, read-out: MIC
[17] = Haemophilus influenzae 76, Ampicillin-resistant strain, agar dilution, read-out: MIC
[18] = Haemophilus influenzae C.L., Ampicillin-sensitive strain, agar dilution, read-out: MIC
[19] = Pseudomonas aeruginosa X239, agar dilution, read-out: MIC
[20] = Staphylococcus aureus V41, Penicillin-resistant strain, agar dilution, read-out: MIC
[21] = Staphylococcus aureus X1.1, agar dilution, read-out: MIC
[22] = Staphylococcus aureus X400, Methicillin-resistant strain, agar dilution, read-out: MIC
[23] = Staphylococcus epidermidis 222, agar dilution, read-out: MIC
[24] = Staphylococcus epidermidis EPI1, agar dilution, read-out: MIC
[25] = Streptococcus faecalis 2041, agar dilution, read-out: MIC
[26] = Streptococcus faecalis X66, agar dilution, read-out: MIC
[27] = Streptococcus pneumoniae Park I, agar dilution, read-out: MIC
[28] = Streptococcus pyogenes C203, agar dilution, read-out: MIC
[29] = C203, mice, oral, two doses given 1 and 4 hours post-infection, dose protecting 50% of the test animals, read-out: ED50 Oral
[30] = C203, sc, mice, subcutaneous, two doses given 1 and 4 hours post-infection, dose protecting 50% of the test animals, read-out: ED50 Subcutaneous
[31] = Klebsiella pneumoniae X68, agar dilution, read-out: MIC

SMILES	MIC (Escherichia coli EC14; [16]) [µg/mL]	MIC [1, 17] [µg/mL]	MIC [2, 18] [µg/mL]	MIC ([3]; Klebsiella pneumoniae, X68) [µg/mL]	MIC [4, 19] [µg/mL]	MIC [5] [µg/mL]	MIC [6, 20] [µg/mL]	MIC [7, 21] [µg/mL]	MIC [8, 22] [µg/mL]	MIC [9, 23] [µg/mL]	MIC [10, 24] [µg/mL]	MIC [11, 25] [µg/mL]	MIC [12, 26] [µg/mL]	MIC [13, 27] [µg/mL]	MIC [14, 28] [µg/mL]	ED50 [15, 29] [mg/kg]	ED50 [15, 30] [mg/kg]	further results
CCC1OC(=O)CC(O)C(C)C(OC2OC(C)C(O)C(N(C)C)C2O)C(CCOc2ccccc2)CC(C)C(=O)C=CC(C)=CC1COC1OC(C)C(OC(=O)CNCc2ccccc2)C(OC)C1OC (centres unmarked) [Compound 11, 4ʹʹ-O-(N-Benzylaminoacetyl)-20-DH-20-O-phenyl-desmycosin]	> 128	64 (≈ 64.2 µM)	128 (≈ 128 µM)	> 128	> 128	2 (≈ 2.01 µM)	2 (≈ 2.01 µM)	1 (≈ 1 µM)	2 (≈ 2.01 µM)	2 (≈ 2.01 µM)	2 (≈ 2.01 µM)	8 (≈ 8.02 µM)	8 (≈ 8.02 µM)	2 (≈ 2.01 µM)	2 (≈ 2.01 µM)	14.4	5.7	–
CCC1OC(=O)CC(O)C(C)C(OC2OC(C)C(O)C(N(C)C)C2O)C(CCOc2ccccc2)CC(C)C(=O)C=CC(C)=CC1COC1OC(C)C(OC(=O)C(NC(=O)OC(C)(C)C)c2ccccc2)C(OC)C1OC [Compound 6, 4ʹʹ-O-(N-BOC)-D-phenylglycyl-20-DH-20-O-phenyl-desmycosin]	> 128	> 128	> 128	> 128	> 128	16 (≈ 14.8 µM)	8 (≈ 7.38 µM)	8 (≈ 7.38 µM)	8 (≈ 7.38 µM)	8 (≈ 7.38 µM)	16 (≈ 14.8 µM)	> 128	> 128	16 (≈ 14.8 µM)	8 (≈ 7.38 µM)	–	–	–
CCC1OC(=O)CC(O)C(C)C(OC2OC(C)C(OC(C)=O)C(N(C)C)C2OC(C)=O)C(CCOc2ccccc2)CC(C)C(=O)C=CC(C)=CC1COC1OC(C)C(OC(C)=O)C(OC)C1OC (centres unmarked) [Compound 1, 2ʹ,4ʹ,4ʹʹ-Tri-O-acetyl-20-DH-20-O-phenyl-desmycosin]	> 128	> 128	> 128	> 128	> 128	4 (≈ 4.1 µM)	2 (≈ 2.05 µM)	4 (≈ 4.1 µM)	4 (≈ 4.1 µM)	1 (≈ 1.02 µM)	4 (≈ 4.1 µM)	128 (≈ 131 µM)	64 (≈ 65.6 µM)	8 (≈ 8.2 µM)	1 (≈ 1.02 µM)	–	–	–
CCC1OC(=O)CC(O)C(C)C(OC2OC(C)C(O)C(N(C)C)C2O)C(CCN2CC(C)CC(C)C2)CC(C)C(=O)C=CC(C)=CC1COC1OC(C)C(OC(C)=O)C(OC)C1OC (centres unmarked) [Compound 19, 4ʹʹ-O-Acetyl-20-DH-20-deoxy-20-(3,5-dimethylpiperidin-1-yl)-desmycosin]	> 128	64 (≈ 70.2 µM)	32 (≈ 35.1 µM)	> 128	> 128	1 (≈ 1.1 µM)	1 (≈ 1.1 µM)	2 (≈ 2.19 µM)	1 (≈ 1.1 µM)	1 (≈ 1.1 µM)	1 (≈ 1.1 µM)	8 (≈ 8.78 µM)	8 (≈ 8.78 µM)	0.125 (≈ 0.137 µM)	0.125 (≈ 0.137 µM)	–	–	–
CCC1OC(=O)CC(O)C(C)C(OC2OC(C)C(O)C(N(C)C)C2O)C(CCOc2ccccc2)CC(C)C(=O)C=CC(C)=CC1COC1OC(C)C(OC(=O)C(N)c2ccccc2)C(OC)C1OC [Compound 7, 20-DH-20-O-Phenyl-4ʹʹ-O-(D-phenylglycyl)-desmycosin]	> 128	64 (≈ 65.1 µM)	128 (≈ 130 µM)	> 128	> 128	1 (≈ 1.02 µM)	2 (≈ 2.03 µM)	1 (≈ 1.02 µM)	1 (≈ 1.02 µM)	1 (≈ 1.02 µM)	2 (≈ 2.03 µM)	32 (≈ 32.5 µM)	16 (≈ 16.3 µM)	2 (≈ 2.03 µM)	2 (≈ 2.03 µM)	21	> 10	–
CCC1OC(=O)CC(O)C(C)C(OC2OC(C)C(O)C(N(C)C)C2O)C(CCOc2ccccc2)CC(C)C(=O)C=CC(C)=CC1COC1OC(C)C(OC(=O)Cc2ccccc2)C(OC)C1OC (centres unmarked) [Compound 4, 20-DH-20-O-Phenyl-4ʹʹ-O-(phenylacetyl)-desmycosin]	–	–	–	> 128	–	2 (≈ 2.07 µM)	–	–	–	–	–	–	–	–	–	–	–	MIC (Escherichia coli EC14; Escherichia coli, EC14): > 128 µg/mL; MIC ([1]; Haemophilus influenzae, 76): 128 µg/mL (≈ 132 µM); MIC ([2]; Haemophilus influenzae): 128 µg/mL (≈ 132 µM); MIC ([4]; Pseudomonas aeruginosa, X239): > 128 µg/mL; MIC ([6]; Staphylococcus aureus, V41): 2 µg/mL (≈ 2.07 µM); MIC ([7]; Staphylococcus aureus, X1.1): 2 µg/mL (≈ 2.07 µM); MIC ([8]; Staphylococcus aureus, X400): 2 µg/mL (≈ 2.07 µM); MIC ([9]; Staphylococcus epidermidis, 222): 1 µg/mL (≈ 1.03 µM); MIC ([10]; Staphylococcus epidermidis, EPI1): 2 µg/mL (≈ 2.07 µM); MIC [11]; 2041: 64 µg/mL (≈ 66.1 µM); MIC ([12]; X66): 16 µg/mL (≈ 16.5 µM); MIC ([13]; Streptococcus pneumoniae): 4 µg/mL (≈ 4.13 µM); MIC ([14]; Streptococcus pyogenes, C203): 2 µg/mL (≈ 2.07 µM); ED50 ([15]; C203, po, read-out: ED50 Oral): 14.2 mg/kg; ED50 ([15]; C203, sc, read-out: ED50 Subcutaneous): > 10 mg/kg
CCC1OC(=O)CC(O)C(C)C(OC2OC(C)C(O)C(N(C)C)C2O)C(CCOc2ccccc2)CC(C)C(=O)C=CC(C)=CC1COC1OC(C)C(OC(=O)CN2CCN(C)CC2)C(OC)C1OC (centres unmarked) [Compound 15, 4ʹʹ-O-[(4-Methyl-piperazin-1-yl)acetyl]-20-DH-20-O-phenyl-desmycosin]	> 128	128 (≈ 129 µM)	128 (≈ 129 µM)	–	> 128	4 (≈ 4.04 µM)	4 (≈ 4.04 µM)	4 (≈ 4.04 µM)	4 (≈ 4.04 µM)	4 (≈ 4.04 µM)	8 (≈ 8.08 µM)	16 (≈ 16.2 µM)	16 (≈ 16.2 µM)	1 (≈ 1.01 µM)	2 (≈ 2.02 µM)	29	> 10	MIC [3, 31]: > 128 µg/mL
CCC1OC(=O)CC(O)C(C)C(OC2OC(C)C(OC(C)=O)C(N(C)C)C2OC(C)=O)C(CCOc2ccccc2)CC(C)C(=O)C=CC(C)=CC1COC1OC(C)C(OC(=O)CCl)C(OC)C1OC (centres unmarked) [Compound 8, 2ʹ,4ʹ-Di-O-acetyl-4ʹʹ-O-(chloroacetyl)-20-DH-20-O-phenyl-desmycosin]	> 128	> 128	> 128	> 128	> 128	2 (≈ 1.98 µM)	2 (≈ 1.98 µM)	2 (≈ 1.98 µM)	2 (≈ 1.98 µM)	2 (≈ 1.98 µM)	2 (≈ 1.98 µM)	128 (≈ 127 µM)	32 (≈ 31.7 µM)	8 (≈ 7.92 µM)	2 (≈ 1.98 µM)	–	–	–
CCC(C)CN(CC)CCC1CC(C)C(=O)C=CC(C)=CC(COC2OC(C)C(OC(C)=O)C(OC)C2OC)C(CC)OC(=O)CC(O)C(C)C1OC1OC(C)C(O)C(N(C)C)C1O (centres unmarked) [Compound 17, 4ʹʹ-O-Acetyl-20-DH-20-deoxy-20-[N-ethyl-N-(2-methylbutyl)amino]desmycosin]	> 128	128 (≈ 140 µM)	64 (≈ 70.1 µM)	–	> 128	8 (≈ 8.76 µM)	8 (≈ 8.76 µM)	8 (≈ 8.76 µM)	4 (≈ 4.38 µM)	4 (≈ 4.38 µM)	8 (≈ 8.76 µM)	64 (≈ 70.1 µM)	64 (≈ 70.1 µM)	4 (≈ 4.38 µM)	4 (≈ 4.38 µM)	–	–	MIC [3, 31]: > 128 µg/mL

Reference: EP0262903A2, “New acyl derivatives of 20-modified tylosin and desmycosin compounds” (priority 1986, dated 1988)
